Test results from article PMC6911004, “Fragment-based screening identifies molecules targeting the substrate-binding ankyrin repeat domains of tankyrase” (Scientific Reports, 2019).
Blank lines part the entries; values can stand above or below the compound they belong to.

Tests used:
Format in all cases: binding
TNKS2 ARC5 [1] = biological target: T1, TNKS2 ARC5 (Homo sapiens, UniProt Q9H2K2); assay: WaterLOGSY NMR assay
T1 construct: followed by TNKS2 ARC5 (1 μL, 100 μM stock); His6-GST; made in house; host or cells: E. coli
From the text: (§1) 39 hits from the DSF screen were suitable for follow-up by ligand-observed NMR methods. We re-purchased fragments and performed T2 relaxation-edited (CPMG-edited) and waterLOGSY experiments for each fragment with TNKS2 ARC5. We explored saturation transfer difference (STD) NMR, also using TNKS2 ARC5, but the assay was not sensitive enough to produce a reliable binding signal, likely due to the relatively small size of a single ARC protein (data not shown). High ligand concentrations were required to achieve sufficient signal, which in turn could lead to false-positive hits due to non-specific binding.
Using the relaxation-edited assay, we tested each fragment in three independent measurements (Fig. 2C), unless we obtained two negative results (non-binding) in the first two experiments. […] As a negative NOE for the compound-only sample could indicate aggregation, we flagged these compounds as potentially problematic. We identified 14 fragments that bound to TNKS2 ARC5 by both relaxation-edited and waterLOGSY methods (0.78% hit rate). […]
Fragments were dispensed in duplicate into a 384-well plate (250 nL, 100 mM stock in DMSO). […] Solutions were transferred to 1.7 mm NMR tubes using a Gilson liquid handling system. ^1H NMR spectra were recorded, with the DMSO signal dampened. […]

TNKS2 ARC5 [2] = biological target: T1, TNKS2 ARC5; assay: T2 relaxation-edited ligand-observed NMR assay; details: DSF hit validation
From the text: as §1
Using the relaxation-edited assay, we tested each fragment in three independent measurements (Fig. 2C), unless we obtained two negative results (non-binding) in the first two experiments. […] As a negative NOE for the compound-only sample could indicate aggregation, we flagged these compounds as potentially problematic. We identified 14 fragments that bound to TNKS2 ARC5 by both relaxation-edited and waterLOGSY methods (0.78% hit rate). We next tested whether binding of these fragments occurred competitively with the 3BP2 TBM peptide, and also if they bound to TNKS2 ARC4, as competition with peptide binders at various different ARCs will be a prerequisite for an efficient substrate binding antagonist. Three fragments (1, 2, 3) bound to both TNKS2 ARC4 and ARC5 and were competitive with the TBM peptide (0.16% hit rate) (Fig. 2E). Three further fragments also bound to both ARCs, but were not TBM competitive by NMR.
Fragments were dispensed in duplicate into a 384-well plate (250 nL, 100 mM stock in DMSO). Wells were backfilled with DMSO (2.25 μL). Tankyrase ARC protein (47.5 μL in 25 mM HEPES, pH 7.5, 100 mM NaCl, 2 mM TCEP, 10% D2O; 20 μM final protein concentration in the assay) was added to the ‘protein’ samples; buffer only (47.5 μL) was added to the ‘compound-only’ samples. Solutions were transferred to 1.7 mm NMR tubes using a Gilson liquid handling system. ^1H NMR spectra were recorded, with the DMSO and water signals dampened. A relaxation spin filter was applied at 400 ms[65]. Data were processed using Bruker Topspin 3.14. Lines were broadened with LB = 3.0, and the baseline was corrected between 6.0–10.0 ppm. The average integral for all peaks between 6.0–10.0 ppm was calculated, and the difference between compound-only and compound-plus-protein samples was compared. A reduction in signal integrals of ≥15% was classified as a hit. For competitive experiments, 3BP2 16-mer peptide (100 μM) was added, and the spectra were recorded and processed as above. The variability in signal reduction in the relaxation-edited experiment was previously determined as approximately ± 10% (Liu et al., unpublished observations).

TNKS2 ARC4 = biological target: T2, TNKS2 ARC4 (Homo sapiens, UniProt Q9H2K2); assay: Differential scanning fluorimetry (DSF); details: ARC 20 μM + 3BP2 TBM peptide 200 μM, inflection point method
T2 construct: The cell was filled with TNKS2 ARC4 (488–649); His6-GST; made in house; host or cells: E. coli
T2 sequence (Q9H2K2 488-649): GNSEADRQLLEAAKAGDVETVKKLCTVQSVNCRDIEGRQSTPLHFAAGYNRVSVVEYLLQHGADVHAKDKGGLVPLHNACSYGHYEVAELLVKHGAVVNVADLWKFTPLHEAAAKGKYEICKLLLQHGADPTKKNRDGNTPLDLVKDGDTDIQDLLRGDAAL
Protocol: For the experiment shown in Fig. 2A, ARC and 3BP2 TBM peptide concentrations were 20 and 200 μM, respectively, in 50 mM HEPES-NaOH pH 7.5, 100 mM NaCl, 2 mM TCEP and a total volume of 25 μL. SYPRO Orange was added at 5×. Data were recorded from 4–95 °C, with the temperature ramped by 0.5 °C every 15 s, using a CFX384 thermal cycler (Bio-Rad). Data were analysed by non-linear regression in GraphPad Prism using a Boltzmann sigmoid with linear baselines. ΔTm values were determined using the inflection point method.

T1 sequence (Q9H2K2 641-800): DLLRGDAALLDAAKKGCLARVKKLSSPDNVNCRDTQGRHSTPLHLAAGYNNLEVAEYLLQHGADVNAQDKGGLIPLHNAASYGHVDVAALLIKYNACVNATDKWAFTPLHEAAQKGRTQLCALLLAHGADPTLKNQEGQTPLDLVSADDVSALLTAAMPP

Compound: O=C(NCc1ccco1)c1ccc2nccnc2c1 [compound 9]
waterLOGSY (TNKS2 ARC5 [1]): negative NOE signal

binding to TNKS2 ARC5 by ligand-observed NMR, in words (TNKS2 ARC5 [2]; relaxation-edited and waterLOGSY): bound
competition with the 3BP2 TBM peptide by relaxation-edited NMR (TNKS2 ARC5 [2]; ARC used for competition not given): competitive
Compound: O=C(NCc1ccco1)c1ccc(F)cc1 [compound 3]

ΔTm (TNKS2 ARC4): 0.63 °C
Compound: LPHLQRSPPDGQSFRSW [3BP2 16-mer peptide, 16-mer TBM peptide derived from 3BP2, W added for A280, N-terminus acetylated, C-terminus amide-capped; positive control, reference compound]
